From patent publication US20210355121A1, “FUSED TRICYCLIC KRAS INHIBITORS” (Incyte Corporation, priority 2020, published 2021)
pIC50: −log10 of the molar value.

Tests used:
[1] = system: MIA PaCa-2 (KRAS G12C) cells; assay: KRAS_G12C cellular pERK HTRF assay; assay type: cell-based, human; parameters: G12C_pERK (KRAS_G12C pERK assay IC50): scale not given here; details: phospho-ERK1/2 HTRF, 4 hours incubation; for pIC50: Homo sapiens, MIA PaCa-2, read-out: G12C_pERK (KRAS_G12C pERK assay IC50)
Procedure: MIA PaCa-2 (KRAS G12C; ATCC® CRL-1420), A427 (KRAS G12D; ATCC® HTB53), HPAF-II (KRAS G12D; ATCC® CRL-1997) and NCI-H838 (KRAS WT; ATCC® CRL-5844) cells are purchased from ATCC and maintained in RPMI 1640 media supplemented with 10% FBS (Gibco/Life Technologies). The cells are plated at 5000 cells per well (8 uL) into Greiner 384-well low volume, flat-bottom, tissue culture treated white plates and incubated overnight at 37° C., 5% CO2. The next morning, test compound stock solutions are diluted in media at 3× the final concentration, and 4 uL are added to the cells. The plate is mixed by gentle rotation for 30 seconds (250 rpm) at room temperature. The cells are incubated with the KRAS G12C and G12D compounds for 4 hours or 2 hours respectively at 37° C., 5% CO2.
4 uL of 4× lysis buffer with blocking reagent (1:25) (Cisbio) are added to each well and plates are rotated gently (300 rpm) for 30 minutes at room temperature. 4 uL per well of Cisbio anti Phospho-ERK 1/2 d2 is mixed with anti Phospho-ERK 1/2 Cryptate (1:1) are added to each well, mixed by rotation and incubated overnight in the dark at room temperature. Plates are read on the Pherastar plate reader at 665 nm and 620 nm wavelengths. IC50 determination is performed by fitting the curve of inhibitor percent inhibition versus the log of the inhibitor concentration using the GraphPad Prism 7 software.

[2] = molecular target: KRAS G12C (Homo sapiens, UniProt P01116, G12C); assay: KRAS G12C GDP-GTP exchange assay (bodipy-GDP for GppNHp, with SOS1); assay type: biochemical; details: 2.5 nM bodipy-loaded KRAS G12C, 2 hours pre-incubation with inhibitor, 2 hours after GppNHp-SOS1; read-out: G12C_exchange (KRAS_G12C exchange assay IC50)
KRAS G12C, sequence (P01116 1-188 isoform P01116-2 G12C): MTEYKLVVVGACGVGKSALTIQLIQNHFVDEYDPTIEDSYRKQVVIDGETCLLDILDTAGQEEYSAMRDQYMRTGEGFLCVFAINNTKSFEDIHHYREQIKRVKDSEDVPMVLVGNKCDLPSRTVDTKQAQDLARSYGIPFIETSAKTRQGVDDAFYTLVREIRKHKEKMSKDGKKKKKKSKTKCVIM
Procedure: The inhibitor potency of the exemplified compounds was determined in a fluorescence based guanine nucleotide exchange assay, which measures the exchange of bodipy-GDP (fluorescently labeled GDP) for GppNHp (Non-hydrolyzable GTP analog) to generate the active state of KRAS in the presence of SOS1 (guanine nucleotide exchange factor). Inhibitors were serially diluted in DMSO and a volume of 0.1 μL was transferred to the wells of a black low volume 384-well plate. 5 μL/well volume of bodipy-loaded KRAS G12C diluted to 5 nM in assay buffer (25 mM Hepes pH 7.5, 50 mM NaCl, 10 mM MgCl2 and 0.01% Brij-35) was added to the plate and pre-incubated with inhibitor for 2 hours at ambient temperature. Appropriate controls (enzyme with no inhibitor or with a G12C inhibitor (AMG-510)) were included on the plate. The exchange was initiated by the addition of a 5 μL/well volume containing 1 mM GppNHp and 300 nM SOS1 in assay buffer. The 10 μL/well reaction concentration of the bodipy-loaded KRAS G12C, GppNHp, and SOS1 were 2.5 nM, 500 uM, and 150 nM, respectively. The reaction plates were incubated at ambient temperature for 2 hours, a time estimated for complete GDP-GTP exchange in the absence of inhibitor. For the KRAS G12D and G12V mutants, similar guanine nucleotide exchange assays were used with 2.5 nM as final concentration for the bodipy loaded KRAS proteins and with 4 hours and 3 hours incubation after adding GppNHp-SOS1 mixture for G12D and G12V respectively. A cyclic peptide described to selectively bind G12D mutant (Sakamoto et al., BBRC 484.3 (2017), 605-611) or internal compounds with confirmed binding were used as positive controls in the assay plates. Fluorescence intensities were measured on a PheraStar plate reader instrument (BMG Labtech) with excitation at 485 nm and emission at 520 nm.
Either GraphPad prism or XLfit was used to analyze the data. The IC50 values were derived by fitting the data to a four parameter logistic equation producing a sigmoidal dose-response curve with a variable Hill coefficient. Prism equation: Y=Bottom+(Top−Bottom)/(1+10^((Log IC50−X)*Hill slope)); XLfit equation: Y=(A+((B−A)/(1+((X/C)^D)))) where X is the logarithm of inhibitor concentration and Y is the response.

Row | Structure (SMILES) | pIC50 [1] | pIC50 [2] | G12C_pERK (KRAS_G12C pERK assay IC50) [1]
1 | Cc1cc2[nH]ncc2c(-c2c(C)cc3c(nc(N4CC(C)(N(C)C)C4)c4cnn([C@H]5CCN(C(=O)/C=C/CF)[C@H](CC#N)C5)c43)c2F)c1C (single isomer, unassigned) [Example 64a] | ≥ 7.00 | ≥ 7.00 | –
2 | COC/C=C/C(=O)N1CC[C@H](n2ncc3c(N4CC(C)(N(C)C)C4)nc4c(F)c(-c5c(C)c(C)cc6[nH]ncc56)c(C)cc4c32)C[C@H]1CC#N (single isomer, unassigned) [Example 65a] | ≥ 7.00 | ≥ 7.00 | –
3 | Cc1cc2[nH]ncc2c(-c2c(C)cc3c(nc(N4CC(C)(N(C)C)C4)c4cnn([C@H]5CCN(C(=O)/C=C/CN(C)C)[C@H](CC#N)C5)c43)c2F)c1C (single isomer, unassigned) [Example 66a] | ≥ 7.00 | ≥ 7.00 | –
4 | CC#CC(=O)N1CC[C@H](n2ncc3c(O[C@@H](C)[C@@H]4CCCN4C)nc4c(F)c(-c5c(C)c(C)cc6[nH]ncc56)c(C)cc4c32)C[C@H]1CC#N (single isomer, unassigned) [Example 69b] | ≥ 7.00 | ≥ 7.00 | –
5 | COC/C=C/C(=O)N1CC[C@H](n2ncc3c(O[C@@H](C)[C@@H]4CCCN4C)nc4c(F)c(-c5c(C)c(C)cc6[nH]ncc56)c(C)cc4c32)C[C@H]1CC#N (single isomer, unassigned) [Example 70b] | ≥ 7.00 | ≥ 7.00 | –
6 | Cc1cc2[nH]ncc2c(-c2c(C)cc3c(nc(O[C@@H](C)[C@@H]4CCCN4C)c4cnn([C@H]5CCN(C(=O)/C=C/CN(C)C)[C@H](CC#N)C5)c43)c2F)c1C (single isomer, unassigned) [Example 71b] | ≥ 7.00 | ≥ 7.00 | –
7 | Cc1cc2[nH]ncc2c(-c2c(Cl)cc3c(nc(N4CC(N(C)C)C4)c4cnn([C@H]5CCN(C(=O)/C=C/CF)[C@H](CC#N)C5)c43)c2F)c1C (single isomer, unassigned) [Example 72a] | ≥ 7.00 | ≥ 7.00 | –
8 | CC#CC(=O)N1CC[C@H](n2ncc3c(N4CC(N(C)C)C4)nc4c(F)c(-c5c(C)c(C)cc6[nH]ncc56)c(Cl)cc4c32)C[C@H]1CC#N (single isomer, unassigned) [Example 74a] | ≥ 7.00 | ≥ 7.00 | –
9 | COC/C=C/C(=O)N1CC[C@H](n2ncc3c(N4CC(N(C)C)C4)nc4c(F)c(-c5c(C)c(C)cc6[nH]ncc56)c(Cl)cc4c32)C[C@H]1CC#N (single isomer, unassigned) [Example 75a] | ≥ 7.00 | ≥ 7.00 | –
10 | Cc1cc2[nH]ncc2c(-c2c(Cl)cc3c(nc(N4CC(N(C)C)C4)c4cnn([C@H]5CCN(C(=O)/C=C/CN(C)C)[C@H](CC#N)C5)c43)c2F)c1C (single isomer, unassigned) [Example 76a] | ≥ 7.00 | ≥ 7.00 | –
11 | CC#CC(=O)N1CC[C@H](n2ncc3c(N4CC(C)(N(C)C)C4)nc4c(F)c(-c5c(C)c(C)cc6[nH]ncc56)c(Cl)cc4c32)C[C@H]1CC#N (single isomer, unassigned) [Example 82a] | ≥ 7.00 | ≥ 7.00 | –
12 | COC/C=C/C(=O)N1CC[C@H](n2ncc3c(N4CC(C)(N(C)C)C4)nc4c(F)c(-c5c(C)c(C)cc6[nH]ncc56)c(Cl)cc4c32)C[C@H]1CC#N (single isomer, unassigned) [Example 83a] | ≥ 7.00 | ≥ 7.00 | –
13 | Cc1cc2[nH]ncc2c(-c2c(Cl)cc3c(nc(N4CC(C)(N(C)C)C4)c4cnn([C@H]5CCN(C(=O)/C=C/CN(C)C)[C@H](CC#N)C5)c43)c2F)c1C (single isomer, unassigned) [Example 84a] | ≥ 7.00 | ≥ 7.00 | –
14 | C=CC(=O)N1CCC(n2ncc3cnc4c(F)c(-c5cc(O)cc6ccccc56)c(Cl)cc4c32)CC1 [Example 1] | – | ≥ 7.00 | ††
15 | C=CC(=O)N1CCC(n2ncc3c(N4CC(N(C)C)C4)nc4c(F)c(-c5cc(O)cc6ccccc56)c(Cl)cc4c32)CC1 [Example 2, 1-(4-(8-chloro-4-(3-(dimethylamino)azetidin-1-yl)-6-fluoro-7-(3-hydroxynaphthalen-1-yl)-1H-pyrazolo[4,3-c]quinolin-1-yl)piperidin-1-yl)prop-2-en-1-one] | ≥ 7.00 | ≥ 7.00 | –
16 | C=CC(=O)N1CC[C@H](n2ncc3c(N4CC(N(C)C)C4)nc4c(F)c(-c5cncc6ccccc56)c(Cl)cc4c32)C[C@H]1CC#N [Example 22, 2-((2S,4S)-1-acryloyl-4-(8-chloro-4-(3-(dimethylamino)azetidin-1-yl)-6-fluoro-7-(isoquinolin-4-yl)-1H-pyrazolo[4,3-c]quinolin-1-yl)piperidin-2-yl)acetonitrile] | ≥ 7.00 | ≥ 7.00 | –

The next lines start with the values.

Row | pIC50 [1] | pIC50 [2] | G12C_pERK (KRAS_G12C pERK assay IC50) [1] | Structure (SMILES)
17 | ≥ 7.00 | ≥ 7.00 | – | Cc1cc2[nH]ncc2c(-c2c(C)cc3c(nc(O[C@@H](C)[C@@H]4CCCN4C)c4cnn([C@H]5CCN(C(=O)/C=C/CF)[C@H](CC#N)C5)c43)c2F)c1C (single isomer, unassigned) [Example 67b]
18 | ≥ 7.00 | ≥ 7.00 | – | C=C(F)C(=O)N1CC[C@H](n2ncc3c(O[C@@H](C)[C@@H]4CCCN4C)nc4c(F)c(-c5c(C)c(C)cc6[nH]ncc56)c(C)cc4c32)C[C@H]1CC#N (single isomer, unassigned) [Example 68b]
19 | ≥ 7.00 | ≥ 7.00 | – | C=C(F)C(=O)N1CC[C@H](n2ncc3c(N4CC(N(C)C)C4)nc4c(F)c(-c5c(C)c(C)cc6[nH]ncc56)c(Cl)cc4c32)C[C@H]1CC#N (single isomer, unassigned) [Example 73a]
20 | ≥ 7.00 | ≥ 7.00 | – | C=C(F)C(=O)N1CC[C@H](n2ncc3c(OCC4CCCN4C)nc4c(F)c(-c5c(C)c(C)cc6[nH]ncc56)c(Cl)cc4c32)C[C@H]1CC#N (single isomer, unassigned) [Example 77a]
21 | ≥ 7.00 | ≥ 7.00 | – | CC#CC(=O)N1CC[C@H](n2ncc3c(OC[C@@H]4CCCN4C)nc4c(F)c(-c5c(C)c(C)cc6[nH]ncc56)c(Cl)cc4c32)C[C@H]1CC#N (single isomer, unassigned) [Example 78a]
22 | ≥ 7.00 | ≥ 7.00 | – | COC/C=C/C(=O)N1CC[C@H](n2ncc3c(OC[C@@H]4CCCN4C)nc4c(F)c(-c5c(C)c(C)cc6[nH]ncc56)c(Cl)cc4c32)C[C@H]1CC#N (single isomer, unassigned) [Example 79a]
23 | ≥ 7.00 | ≥ 7.00 | – | Cc1cc2[nH]ncc2c(-c2c(Cl)cc3c(nc(OC[C@@H]4CCCN4C)c4cnn([C@H]5CCN(C(=O)/C=C/CN(C)C)[C@H](CC#N)C5)c43)c2F)c1C (single isomer, unassigned) [Example 80a]
24 | ≥ 7.00 | ≥ 7.00 | – | C=C(F)C(=O)N1CC[C@H](n2ncc3c(N4CC(C)(N(C)C)C4)nc4c(F)c(-c5c(C)c(C)cc6[nH]ncc56)c(Cl)cc4c32)C[C@H]1CC#N (single isomer, unassigned) [Example 81a]
25 | ≥ 7.00 | ≥ 7.00 | – | CC#CC(=O)N1CC[C@H](n2ccc3c(OC[C@@H]4CCCN4C)nc4c(F)c(-c5c(C)c(C)cc6[nH]ncc56)c(Cl)cc4c32)C[C@H]1CC#N (single isomer, unassigned) [Example 90a]
